Data on two substances can be found in patent US20080032896A1, “Methods for identifying compounds that bind to a target” (priority 1995, published 2008).

The test system of assay [1] is anti-FGF monoclonal antibody. In words: FGF binding assay: inhibition of radiolabeled FGF binding to biotinylated anti-FGF antibody. Also noted: species or system mouse. Here is the method:
FIG. 1 is a graph depicting the ability of compounds PPI-432, PPI-652 and PPI-654 to inhibit the binding of radiolabeled FGF to an anti-FGF antibody.
The activities of the libraries were tested using an FGF binding assay. […] Since Libraries I and II are highly diverse, the active non-peptide compounds should have a spectrum of potencies which cumulatively yield the average potency seen in the library.
The eluted non-peptide compounds were brought to dryness under vacuum. Recovered non-peptide compounds were dissolved in 50 μl water and tested for their ability to block the interaction of bFGF with the target protein. (Assuming 100% recovery of non-peptide compounds and 100% binding to bivalent antibody, the amount of recovered non-peptide compounds was calculated to be 200 ng).
Several of the non-peptide compounds selected from the combinatorial library were made synthetically and compared to the starting peptide (PPI-432) for their ability to bind to the target protein. The compounds were synthesized with an amino-terminal acetyl group and a carboxy-terminal amide. The potency of two non-peptide compounds (PPI-652 and PPI-654, shown in Table 2), containing modified amino acids at positions 5 and 7, were compared to the starting peptide PPI-432 in their ability to inhibit radiolabeled FGF binding to biotinylated anti-FGF antibody. […]

The subject of assay [2] is monoclonal antibody to bFGF. The assay can be described thus: Competitive binding: blocking of phage binding to the anti-bFGF antibody. The settings on record: phage containing the sequence P-R-G-H-W-K-Q (SEQ ID NO: 9); competitive binding experiments. Also noted: species or system mouse. How it is done:
A monoclonal antibody raised against human basic FGF (bFGF) was used as a biopanning target using a 7-mer peptide library in a bacteriophage M13 vector. To prepare the biopanning plates, four wells of an Immulon4 microtiter plate (Dynatech) were coated with stepavidin (1 μg/well) in 100 mM NaHCO3, pH 9.5, for 2 hours at room temperature or overnight at 4° C. The strepavidin-coated wells were washed three times with phosphate-buffered saline (PBS). To each well containing strepavidin, biotinylated rat anti mouse antibody K light chain (PharMingen) was added, at 1 μg/well, in PBS for 30 minutes to 1 hour at room temperature. The wells were then washed again with PBS three times. Non-specific binding sites were blocked with 300 μl/well PBS, 1% dry milk for 1 hour at room temperature. The wells were then washed with PBS, 0.1% dry milk three times, loaded with 50 μl/well PBS, 0.1% dry milk and stored at 4° C. […]
After the 2 hour room temperature incubation of the phage with the antibody, the PBS, 0.1% milk buffer was removed from the wells of the strepavidin/biotinylated α-mouse complex plates and the corresponding 100 μl of each tube containing the antibody/phage mixture was added to each of the four wells. […] The phage eluant was titered and the fractional yield determined. […]

As for P-P-G-H-F-K-D (PPGHFKD) [PPI-432], the “blocking of the binding of bFGF to the antibody” value in assay [1] is “blocked”.
For “G-A-F-P-P-G-H-F-K-D-P-D-R-L (GAFPPGHFKDPDRL) [PPI-416]”, the “blocking of phage binding to the antibody” value in assay [2] is listed as “blocked”. In assay [1], the “blocking of the binding of bFGF to the antibody” value is “blocked”.
